Test results reported in US20070275962A1, “Heterobicyclic Compounds as Pharmaceutically Active Agents” (GPC BIOTECH AG, priority 2003, published 2007).

Experiments:
[1] = biological target: T1, mycobacterial protein kinase G (PknG) (Mycobacterium tuberculosis, UniProt P9WI73); experiment: biochemical; conditions: read-out: Inhibition of PknG (IC50, [μM])
T1 construct: GST; made in house; host or cells: E. coli BL21

CK1-alpha GST = biological target: T2, CK1-alpha GST (Homo sapiens, UniProt P48729); experiment: General kinase assay: CK1-alpha; assay type: biochemical; conditions: concentration 10 μM; read-out: Inhibitory effect on Target CK1-alpha GST
T2 construct: GST
T2 sequence (P48729 whole entry): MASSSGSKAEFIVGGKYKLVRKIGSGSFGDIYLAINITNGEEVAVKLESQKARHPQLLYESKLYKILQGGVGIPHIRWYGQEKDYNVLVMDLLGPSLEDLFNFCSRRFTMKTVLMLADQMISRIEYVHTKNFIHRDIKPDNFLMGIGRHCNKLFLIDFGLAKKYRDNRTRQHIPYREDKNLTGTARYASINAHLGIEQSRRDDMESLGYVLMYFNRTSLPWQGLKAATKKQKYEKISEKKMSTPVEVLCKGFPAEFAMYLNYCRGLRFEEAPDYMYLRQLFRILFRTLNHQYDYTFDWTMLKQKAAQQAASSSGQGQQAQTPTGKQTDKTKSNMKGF
Method: (§1) General Assay Protocol for all Kinases [[[…]]] [[[…]]] Reaction Buffer: Final Assay Concentrations: [[[…]]] Pipetting Sequence: • 1) Add 8 μl 50 μM MBP in Reaction Buffer to each well of Assay Plate • 2) Add 10 μl 500 mM EDTA in H2O to C- wells • 3) Add 8 μl 62.5 μCi/ml Adenosine 5'-[γ-^33P]triphosphate+5 μM ATP in Reaction Buffer to each well • 4) Add 8 μl 5 fold concentrated inhibitor in 5% DMSO in Reaction Buffer to each well except to C- and C+ wells • 5) Add 8 μl 5% DMSO in Reaction Buffer to C- and C+ wells • 6) Add 8 μl 5 fold concentrated kinase in Reaction Buffer to each well • 7) Incubate 1 hr at room temperature • 8) Add 10 μl 50 mM EDTA in H2O to each well except to C- wells • 9) Prepare MAPH plates by adding 200 μl 0.75% H3PO4 to each well • 10) Exhaust 0.75% H3PO4 using Millipore vacuum station • 11) Add 60 μl 0.75% H3PO4 to each well of MAPH Filter Plate • 12) Transfer 30 μl sample per well from Assay Plate to corresponding well of MAPH Filter Plate • 13) Incubate 30 min at room temperature • 14) Wash each well of MAPH Filter Plates 3× with 200 μl 0.75% H3PO4 using Millipore vacuum station • 15) Add 20 μl Szintilation Liquid to each well of MAPH Filter Plate • 16) Seal MAPH Filter Plate • 17) Store MAPH Filter Plate 30 min in darkness • 18) Quantify radioactivity

SRPK1 GST = biological target: T3, SRPK1 GST (Homo sapiens, UniProt Q96SB4); experiment: General kinase assay: SRPK1; assay type: biochemical; conditions: concentration 10 μM; read-out: Inhibitory effect on Target SRPK1 GST
T3 construct: GST
T3 sequence (Q96SB4 whole entry): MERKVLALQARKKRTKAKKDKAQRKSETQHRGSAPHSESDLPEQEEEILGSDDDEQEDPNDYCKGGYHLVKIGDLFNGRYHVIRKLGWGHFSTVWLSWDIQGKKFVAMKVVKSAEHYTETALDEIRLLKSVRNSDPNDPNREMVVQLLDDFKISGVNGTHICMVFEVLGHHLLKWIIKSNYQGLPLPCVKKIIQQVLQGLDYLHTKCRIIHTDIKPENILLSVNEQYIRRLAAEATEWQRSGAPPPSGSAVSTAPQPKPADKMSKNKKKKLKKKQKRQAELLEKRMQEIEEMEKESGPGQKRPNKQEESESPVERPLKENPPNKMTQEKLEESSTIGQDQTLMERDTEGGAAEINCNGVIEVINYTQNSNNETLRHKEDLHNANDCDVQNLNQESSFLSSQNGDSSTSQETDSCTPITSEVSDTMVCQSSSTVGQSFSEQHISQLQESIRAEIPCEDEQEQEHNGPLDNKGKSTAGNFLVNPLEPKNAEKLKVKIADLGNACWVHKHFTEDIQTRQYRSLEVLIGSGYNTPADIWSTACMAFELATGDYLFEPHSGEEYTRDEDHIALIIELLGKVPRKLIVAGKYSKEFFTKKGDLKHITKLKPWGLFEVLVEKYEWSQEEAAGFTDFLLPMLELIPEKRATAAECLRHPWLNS
Method: as §1

RICK-STREP 1 = biological target: T4, RICK-STREP 1 (Homo sapiens, UniProt O43353); experiment: General kinase assay: RICK; assay type: biochemical; conditions: concentration 10 μM; read-out: Inhibitory effect on Target RICK-STREP 1
T4 construct: Strep
T4 sequence (O43353 whole entry): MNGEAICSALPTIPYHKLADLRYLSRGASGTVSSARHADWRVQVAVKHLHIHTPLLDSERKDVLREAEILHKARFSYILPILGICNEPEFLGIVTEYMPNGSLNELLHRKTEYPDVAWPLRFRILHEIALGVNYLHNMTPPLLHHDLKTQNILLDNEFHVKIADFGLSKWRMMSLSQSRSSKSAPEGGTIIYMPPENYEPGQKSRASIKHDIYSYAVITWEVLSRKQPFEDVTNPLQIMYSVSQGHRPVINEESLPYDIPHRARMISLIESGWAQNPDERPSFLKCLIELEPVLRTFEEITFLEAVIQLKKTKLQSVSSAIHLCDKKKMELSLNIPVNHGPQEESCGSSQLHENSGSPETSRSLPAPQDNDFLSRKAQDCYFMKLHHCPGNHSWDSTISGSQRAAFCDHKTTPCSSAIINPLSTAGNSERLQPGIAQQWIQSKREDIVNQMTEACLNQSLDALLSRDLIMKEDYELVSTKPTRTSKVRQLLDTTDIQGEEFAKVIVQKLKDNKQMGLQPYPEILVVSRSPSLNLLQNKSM
Method: as §1

GSK-3beta HIS = biological target: T5, GSK-3beta HIS (Homo sapiens, UniProt P49841); experiment: General kinase assay: GSK-3beta; assay type: biochemical; conditions: concentration 10 μM; read-out: Inhibitory effect on Target GSK-3beta HIS
T5 construct: His
T5 sequence (P49841 whole entry): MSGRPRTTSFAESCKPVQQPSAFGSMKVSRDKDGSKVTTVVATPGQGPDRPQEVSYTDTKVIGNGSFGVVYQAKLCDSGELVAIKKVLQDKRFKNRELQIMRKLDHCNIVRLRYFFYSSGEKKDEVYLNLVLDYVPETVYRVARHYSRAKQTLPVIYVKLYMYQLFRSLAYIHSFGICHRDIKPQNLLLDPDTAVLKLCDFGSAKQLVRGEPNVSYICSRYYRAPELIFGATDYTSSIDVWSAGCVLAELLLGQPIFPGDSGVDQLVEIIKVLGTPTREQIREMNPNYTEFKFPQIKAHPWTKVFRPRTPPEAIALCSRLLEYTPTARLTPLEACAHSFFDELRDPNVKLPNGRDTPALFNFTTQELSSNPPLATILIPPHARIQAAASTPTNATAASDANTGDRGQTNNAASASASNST
Method: as §1

PDGFRbeta GST = biological target: T6, PDGFRbeta GST (Homo sapiens, UniProt P09619); experiment: General kinase assay: PDGFRbeta; assay type: biochemical; conditions: concentration 10 μM; read-out: Inhibitory effect on Target PDGFRbeta GST
T6 construct: GST
T6 sequence (P09619 33-1106): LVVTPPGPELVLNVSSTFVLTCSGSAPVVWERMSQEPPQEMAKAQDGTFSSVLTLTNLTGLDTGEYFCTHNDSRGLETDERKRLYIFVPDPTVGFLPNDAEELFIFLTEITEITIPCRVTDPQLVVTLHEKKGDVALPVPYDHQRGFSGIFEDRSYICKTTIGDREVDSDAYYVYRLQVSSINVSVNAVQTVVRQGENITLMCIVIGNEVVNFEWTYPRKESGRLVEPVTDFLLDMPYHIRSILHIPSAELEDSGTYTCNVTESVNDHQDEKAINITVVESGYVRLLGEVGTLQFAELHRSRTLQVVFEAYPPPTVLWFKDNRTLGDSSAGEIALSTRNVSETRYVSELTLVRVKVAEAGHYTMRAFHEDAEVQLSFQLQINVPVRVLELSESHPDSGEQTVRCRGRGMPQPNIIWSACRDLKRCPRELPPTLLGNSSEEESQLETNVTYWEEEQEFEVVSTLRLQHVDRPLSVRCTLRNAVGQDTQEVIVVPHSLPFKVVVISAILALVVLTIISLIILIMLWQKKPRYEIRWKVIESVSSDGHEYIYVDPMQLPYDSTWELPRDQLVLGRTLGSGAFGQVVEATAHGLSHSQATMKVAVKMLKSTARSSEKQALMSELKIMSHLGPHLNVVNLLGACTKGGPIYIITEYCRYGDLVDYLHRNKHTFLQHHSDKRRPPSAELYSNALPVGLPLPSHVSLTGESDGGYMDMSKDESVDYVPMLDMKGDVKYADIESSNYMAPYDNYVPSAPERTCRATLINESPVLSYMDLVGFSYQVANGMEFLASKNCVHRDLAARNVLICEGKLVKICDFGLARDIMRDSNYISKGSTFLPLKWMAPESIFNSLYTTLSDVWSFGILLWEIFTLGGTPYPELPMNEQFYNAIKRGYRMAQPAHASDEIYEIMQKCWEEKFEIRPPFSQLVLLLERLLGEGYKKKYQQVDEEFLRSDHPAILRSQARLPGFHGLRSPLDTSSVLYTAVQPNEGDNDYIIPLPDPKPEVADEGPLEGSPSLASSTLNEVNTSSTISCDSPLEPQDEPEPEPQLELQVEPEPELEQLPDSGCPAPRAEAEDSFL
Method: as §1

CDK2/CycA = CDK2/CycA (Homo sapiens, UniProt P24941); experiment: General kinase assay: CDK2/CycA; assay type: biochemical; conditions: concentration 10 μM; read-out: Inhibitory effect on Target CDK2/CycA
Method: as §1

T1 sequence (P9WI73 whole entry): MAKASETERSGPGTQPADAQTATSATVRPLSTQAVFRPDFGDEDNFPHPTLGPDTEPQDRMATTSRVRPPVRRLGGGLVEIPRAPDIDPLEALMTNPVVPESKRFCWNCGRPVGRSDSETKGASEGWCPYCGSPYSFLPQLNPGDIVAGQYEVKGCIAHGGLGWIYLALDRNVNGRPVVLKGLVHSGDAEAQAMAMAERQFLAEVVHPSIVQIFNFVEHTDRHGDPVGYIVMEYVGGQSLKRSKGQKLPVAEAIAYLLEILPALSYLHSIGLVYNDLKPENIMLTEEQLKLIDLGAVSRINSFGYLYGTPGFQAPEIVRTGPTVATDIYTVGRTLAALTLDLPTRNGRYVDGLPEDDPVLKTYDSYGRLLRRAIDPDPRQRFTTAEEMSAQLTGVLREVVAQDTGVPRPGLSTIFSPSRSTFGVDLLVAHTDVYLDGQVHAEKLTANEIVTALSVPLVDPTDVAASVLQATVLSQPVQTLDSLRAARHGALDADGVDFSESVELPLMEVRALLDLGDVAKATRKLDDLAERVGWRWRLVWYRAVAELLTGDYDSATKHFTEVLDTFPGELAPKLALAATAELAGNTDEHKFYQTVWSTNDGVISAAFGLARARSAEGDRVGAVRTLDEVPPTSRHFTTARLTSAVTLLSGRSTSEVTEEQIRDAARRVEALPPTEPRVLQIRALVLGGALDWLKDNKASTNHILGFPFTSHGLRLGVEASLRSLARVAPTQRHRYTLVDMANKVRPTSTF

Compound | IC50 [1] [µM] | further results
NC(=O)c1c(NC(=O)C2CC2)sc2cc(OCC(=O)NCCO)ccc12 [Compound A8, 2-(Cyclopropanecarbonyl-amino)-6-[(2-hydroxy-ethylcarbamoyl)-methoxy]-benzo[b]thiophene-3-carboxylic acid amide] | 0.1 to 1 | –
CCN(CC)C(=O)c1cc2c(C(N)=O)c(NC(=O)C3CC3)sc2cc1O [Compound A17, 2-(Cyclopropanecarbonyl-amino)-6-hydroxy-benzo[b]thiophene-3,5-dicarboxylic acid 3-amide-5-diethylamid] | 1.1 to 10 | –
NC(=O)c1c(NC(=O)C2CC2)sc2cc(OCCO)ccc12 [Compound A20, 2-(Cyclopropanecarbonyl-amino)-6-(2-hydroxy-ethoxy)-benzo[b]thiophene-3-carboxylic acid amide] | 0.1 to 1 | –
NC(=O)c1c(NC(=O)C2CC2)sc2c(Br)c(O)c(Br)cc12 [Compound A38, 5,7-Dibromo-2-(cyclopropanecarbonyl-amino)-6-hydroxy-benzo[b]thiophene-3-carboxylic acid amide] | < 0.1 | –
NC(=O)c1c(NC(=O)C2CC2)sc2c1CCOC2 [Compound B1, 2-(Cyclopropanecarbonyl-amino)4,7-dihydro-5H-thieno[2,3-c]pyran-3-carboxylic acid amide] | 0.1 to 1 | –
CC(C)C(=O)Nc1sc2c(c1C(N)=O)CCOC2 [Compound B2, 2-Isobutyrylamino-4,7-dihydro-5H-thieno[2,3-c]pyran-3-carboxylic acid amide] | > 10 | –
NC(=O)c1c(NC(=O)C2CCCC2)sc2c1CCOC2 [Compound B10, 2-(Cyclopentanecarbonyl-amino)-4,7-dihydro-5H-thieno[2,3-c]pyran-3-carboxylic acid amide] | 1.1 to 10 | –
CCC(C)C(=O)Nc1sc2c(c1C(N)=O)CCOC2 (stereo not drawn) [Compound B14, 2-(2-Methyl-butyrylamino)-4 ,7-dihydro-5H-thieno[2,3-c]pyran-3-carboxylic acid amide] | > 10 | –
NC(=O)c1c(NC(=O)C2CCC2)sc2c1CCOC2 [Compound B15, 2-(Cyclobutanecarbonyl-amino)-4,7-dihydro-5H-thieno[2,3-c]pyran-3-carboxylic acid amide] | 1.1 to 10 | –
CC=CC(=O)Nc1sc2c(c1C(N)=O)CCOC2 [Compound B16, 2-But-2-enoylamino-4,7-dihydro-5H-thieno[2,3-c]pyran-3-carboxylic acid amide] | 1.1 to 10 | –
CC(C)=CC(=O)Nc1sc2c(c1C(N)=O)CCOC2 [Compound B17, 2-(3-Methyl-but-2-enoylamino)-4,7-dihydro-5H-thieno[2,3-c]pyran-3-carboxylic acid amide] | 1.1 to 10 | –
CC(C)(C)C(=O)Nc1sc2c(c1C(N)=O)CCOC2 [Compound B18, 2-(2,2-Dimethyl-propionylamino)-4,7-dihydro-5H-thieno[2,3-c]pyran-3-carboxylic acid amide] | > 10 | –
NC(=O)c1c(NC(=O)Nc2ccncc2)sc2c1CCOC2 [Compound B73, 2-(3-Pyridin-4-yl-ureido]-4,7-dihydro-5H-thieno[2,3-c]pyran-3-carboxylic acid amide] | – | inhibition at 10 µM (CK1-alpha GST): > 50%; inhibition at 10 µM (SRPK1 GST): > 50%; inhibition at 10 µM (RICK-STREP 1): > 50%
NC(=O)c1c(NC(=O)NCCc2cccs2)sc2c1CCOC2 [Compound B75, 2-[3-(2-Thiophen-2-yl-ethyl)-ureido]-4,7-dihydro-5H-thieno[2,3-c]pyran-3-carboxylic acid amide] | 0.1 to 1 | –
CCOC(=O)N1CCC(NC(=O)Nc2sc3c(c2C(N)=O)CCOC3)CC1 [Compound B181, 4-[3-(3-Carbamoyl-4,7-dihydro-5H-thieno[2,3-c]pyran-2-yl)-ureido]-piperidine-1-carboxylic-acid ethyl ester] | 1.1 to 10 | –
NC(=O)c1c(NC(=O)C2CC2)sc2c1CC[S+]([O-])C2 (stereo not drawn) [Compound C2, 2-(Cyclopropanecarbonyl-amino)-6-oxo-4,5,6,7-tetrahydro-6λ^4-thieno[2,3-c]thiopyran-3-carboxylic acid amide] | > 10 | –
Cc1ccccc1CNC(=O)Nc1sc2c(c1C(N)=O)CCSC2 [Compound C33, 2-[3-(2-Methyl-benzyl)-ureido]-4,7-dihydro-5H-thieno[2,3-c]thiopyran-3-carboxylic acid amide] | > 10 | –
NC(=O)c1c(NC(=O)Nc2ccc(F)cc2)sc2c1CCSC2 [Compound C45, 2-[3-(4-Fluoro-phenyl)-ureido]-4,7-dihydro-5H-thieno[2,3-c]thiopyran-3-carboxylic acid amide] | 0.1 to 1 | inhibition at 10 µM (GSK-3beta HIS): > 50%; inhibition at 10 µM (SRPK1 GST): > 50%; inhibition at 10 µM (PDGFRbeta GST): > 50%; inhibition at 10 µM (CDK2/CycA): > 50%; inhibition at 10 µM (RICK-STREP 1): > 50%
NC(=O)c1c(NC(=O)Nc2ccc(Oc3ccccc3)cc2)sc2c1CCSC2 [Compound C49, 2-[3-(4-Phenoxy-phenyl)-ureido]-4,7-dihydro-5H-thieno[2,3-c]thiopyran-3-carboxylic acid amide] | 1.1 to 10 | –
NC(=O)c1c(NC(=O)C2CCC2)sc2c1CCCC2 [Compound D9, 2-(Cyclobutanecarbonylamino)-4,5,6,7-tetrahydro-benzo[b]thiophene-3-carboxylic acid amide] | 1.1 to 10 | –
C=CCNC(=S)Nc1sc2c(c1C(N)=O)CCCC2 [Compound D32, 2-(3-Allyl-thioureido)-4,5,6,7-tetrahydro-benzo[b]thiophene-3-carboxylic acid amide] | 1.1 to 10 | –
CC1CCc2sc(NC(=O)C3CC3)c(C(N)=O)c2C1 (stereo not drawn) [Compound D37, 2-(Cyclopropanecarbonyl-amino)-5-methyl-4,5,6,7-tetrahydro-benzo[b]thiophene-3-carboxylic acid amide] | < 0.1 | –
NC(=O)c1c(NC(=O)C2CC2)sc2c1CCC/C2=N\OCc1ccccc1 [Compound D72, E-7-Benzyloxyimino-2-(cyclopropanecarbonyl-amino)-4,5,6,7-tetrahydro-benzo[b]thiophene-3-carboxylic acid amide] | < 0.1 | –
CO/N=C1/CCCc2c1sc(NC(=O)C1CC1)c2C(N)=O [Compound D88, Z-2-(Cyclopropanecarbonyl-amino)-7-methoxyimino-4,5,6,7-tetrahydro-benzo[b]thiophene-3-carboxylic acid amide] | < 0.1 | –
CC1OCc2sc(NC(=O)C3CC3)c(C(N)=O)c21 (stereo not drawn) [Compound D96, 2-(Cyclopropanecarbonyl-amino)-4-methyl-4,6-dihydro-thieno[2,3-c]furan-3-carboxylic acid amide] | 1.1 to 10 | –
COc1ccc(NC(=O)Nc2sc3c(c2C(N)=O)CCC(=O)C3)cc1 [Compound D106, 2-[3-(4-Methoxy-phenyl)-ureido]-6-oxo-4,5,6,7-tetrahydro-benzo[b]thiophene-3-carboxylic acid amide] | 0.1 to 1 | –
NC(=O)c1c(NC(=O)C2CC2)sc2c1CCC(=NO)C2 [Compound D134, 2-(Cyclopropanecarbonyl-amino)-6-hydroxyimino-4,5,6,7-tetrahydro-benzo[b]thiophene-3-carboxylic acid amide] | – | inhibition at 10 µM (GSK-3beta HIS): > 50%; inhibition at 10 µM (CK1-alpha GST): > 50%; inhibition at 10 µM (RICK-STREP 1): > 50%
NC(=O)c1c(NC(=O)Nc2ccc(I)cc2)sc2c1CCC1(C2)OCCO1 [Compound D175, 2-({[(4-Iodophenyl)amino]carbonyl}amino)-4,7-dihydro-5H-spiro[1-benzothiophene-6,2′-[1,3]dioxolane]-3-carboxamide] | 0.1 to 1 | –
NC(=O)c1c(NC(=O)C2CC2)sc2c1CCC2 [Compound D196, 2-(Cyclopropanecarbonyl-amino)-5,6-dihydro-4H-cyclopenta[b]thiophene-3-carboxylic acid amide] | < 0.1 | –
NC(=O)c1c(NC(=O)Nc2ccc3c(c2)OCO3)sc2c1CCC(O)C2 (stereo not drawn) [Compound D212, 2-(3-Benzo[1,3]dioxol-5-yl-ureido)-6-hydroxy-4,5,6,7-tetrahydro-benzo[b]thiophene-3-carboxylic acid amide] | 0.1 to 1 | –
